One block for each molecule: values may come before it.
Legend:
[1] = Log P by HPLC on reversed phase columns (EEC directive 79/831 Annex V.A8); type: physicochemical; conditions: for chromatographic logP: reversed phase HPLC columns
Method: In the above table, measurement of Log P values was performed according to EEC directive 79/831 Annex V.A8 by HPLC (High Performance Liquid Chromatography) on reversed phase columns with the following methods: • [^a] Log P value is determined by measurement of LC-UV, in an acidic range, with 0.1% formic acid in water and acetonitrile as eluent (linear gradient from 10% acetonitrile to 95% acetonitrile). • [^b] Log P value is determined by measurement of LC-UV, in a neutral range, with 0.001 molar ammonium acetate solution in water and acetonitrile as eluent (linear gradient from 10% acetonitrile to 95% acetonitrile). • [^c] Log P value is determined by measurement of LC-UV, in an acidic range, with 0.1% phosphoric acid and acetonitrile as eluent (linear gradient from 10% acetonitrile to 95% acetonitrile).
If more than one Log P value is available within the same method, all the values are given and separated by “+”.
Calibration was done with straight-chain alkan2-ones (with 3 to 16 carbon atoms) with known Log P values (measurement of Log P values using retention times with linear interpolation between successive alkanones). Lambda-max-values were determined using UV-spectra from 200 nm to 400 nm and the peak values of the chromatographic signals.

[2] = tested on: Colletotrichum lindemuthianum; assay: Colletotrichum lindemuthianum in vitro cell test; type: cell-based; conditions: 144 h, 20 ppm of active ingredient, 6 days incubation, read-out: efficacy (direct activity, inhibition of fungal growth)
Method: Solvent: DMSO Culture medium: 14.6 g anhydrous D-glucose (VWR), 7.1 g Mycological Peptone (Oxoid), 1.4 g granulated Yeast Extract (Merck), QSP 1 liter Inoculum: spores suspension Fungicides were solubilized in DMSO and the solution used to prepare the required range of concentrations. The final concentration of DMSO used in the assay was ≤1%. A spore suspension of C. lindemuthianum was prepared and diluted to the desired spore density. Fungicides were evaluated for their ability to inhibit spores germination and mycelium growth in liquid culture assay. The compounds were added in the desired concentration to the culture medium with spores. After 6 days incubation, fungi-toxicity of compounds was determined by spectrometric measurement of mycelium growth. Inhibition of fungal growth was determined by comparing the absorbance values in wells containing the fungicides with the absorbance in control wells without fungicides.

[3] = tested on: Xanthomonas campestris pv. campestris; assay: Xanthomonas campestris pv. campestris in vitro cell test; type: cell-based; conditions: 20 ppm of active ingredient, 24 h incubation, read-out: efficacy (direct activity, inhibition of bacteria growth)
Method: Solvent: DMSO Culture medium: LB broth medium (Luria Broth Miller) Sigma Inoculum: bacteria suspension Compounds were solubilized in DMSO and the solution used to prepare the required range of concentrations. The final concentration of DMSO used in the assay was ≤1%. Inoculum was prepared from a pre-culture of bacteria grown in liquid medium and diluted to the desired optical density (OD). Compounds were evaluated for their ability to inhibit bacteria growth in liquid culture assay. The compounds were added in the desired concentrations to culture medium containing the bacteria suspension. After 24 h of incubation, the efficacy of compounds was determined by spectrometric measurement of bacteria growth. Inhibition was determined by comparing the absorbance values in wells containing the compounds with the absorbance in control wells without active ingredients.

Peronospora parasitica = assay: In vivo preventive test on Peronospora parasitica (crucifer downy mildew); conditions: Hyaloperonospora parasitica, 120 h; 125 ppm of active ingredient; cabbage; evaluated 5 days after inoculation; read-out: efficacy
Method: (§1) The tested active ingredients were prepared by homogenization in a mixture of acetone/Dimethyl sulfoxide/Tween®, and then diluted with water to obtain the desired active material concentration.
(§2) The young plants of cabbage were treated by spraying the active ingredient prepared as described above. Control plants were treated only with an aqueous solution of acetone/Dimethyl sulfoxide/Tween®.
After 72 hours, the plants were contaminated by spraying the leaves with an aqueous suspension of Peronospora parasitica spores. The contaminated cabbage plants were incubated for 5 days at 20° C. and at 100% relative humidity.
The test was evaluated 5 days after the inoculation. 0% means an efficacy which corresponds to that of the control plants while an efficacy of 100% means that no disease was observed.

Uromyces appendiculatus = assay: In vivo preventive test on Uromyces appendiculatus (bean rust); conditions: Uromyces appendiculatus, 240 h, bean, evaluated 10 days after inoculation, read-out: efficacy
Method: as §1
The young plants of bean were treated by spraying the active ingredient prepared as described above.
Control plants were treated only with an aqueous solution of acetone/Dimethyl sulfoxide/Tween®.
After 72 hours, the plants were contaminated by spraying the leaves with an aqueous suspension of Uromyces appendiculatus spores. The contaminated bean plants were incubated for 24 hours at 20° C. and at 100% relative humidity and then for 9 days at 20° C. and at 70-80% relative humidity.
The test was evaluated 10 days after the inoculation. 0% means an efficacy which corresponds to that of the control plants while an efficacy of 100% means that no disease was observed.
Compound CMP1 was tested in an in vivo preventive test on Uromyces appendiculatus (bean rust) in the same conditions as described in Example G.

[4] = tested on: salicylate responsive promoter sequence of the PR1 (pathogenesis-related protein I) gene (AT2G14610); assay: Induction of defense gene expression in Arabidopsis thaliana (PR1 promoter-GFP reporter plants); type: in vivo; conditions: 72 h, 3rd day after spraying, mock treated leaves set as 1.00, read-out: relative fluorescence value
Method: Arabidopsis thaliana reporter plants containing the coding sequence of a green fluorescent protein (GFP) linked to the salicylate responsive promoter sequence of the PR1 (pathogenesis-related protein I) gene (AT2G14610) were grown for five days and then sprayed with compounds. On the 3rd day after spraying, plant fluorescence was assessed with a MacroFluo instrument from Leica Microsystems (Wetzlar, Germany). Fluorescences were quantified with the Meta-Morph Microscopy Automation & Image Analysis Software (Molecular Devices, Sunnyvale, Calif., United States).
Background fluorescence in mock treated leaves was set as 1.00.

[5] = tested on: Xanthomonas campestris pv. campestris; assay: In vivo preventive test on Xanthomonas campestris pv. campestris (black rot on cabbage); conditions: Xanthomonas campestris, cabbage, evaluated 8 or 10 days after inoculation, read-out: efficacy; for pest or weed control at 125 ppm: 125 ppm of active ingredient
Method: as §1, §2
After 72 hours, the plants were contaminated by spraying the leaves with an aqueous bacteria suspension of Xanthomonas campestris pv. campestris. The contaminated cabbage plants were incubated for 8 or 10 days at 27° C. at 95% relative humidity.
The test was evaluated 8 or 10 days after the inoculation. 0% means an efficacy which corresponds to that of the control plants while an efficacy of 100% means that no disease was observed.
Compound CMP1 was tested in an in vivo preventive test on Xanthomonas campestris pv. campestris (black rot on cabbage) in the same conditions as described in Example F.

[6] = method [a]: LC-UV, acidic range, 0.1% formic acid in water and acetonitrile as eluent
[7] = given in preparation examples, method not marked

SMILES: Cc1c(C2=NC(C)(C)C(=O)O2)sc(Cl)c1Cl [I.24]
- chromatographic logP [1, 6]: 4.51
- inhibition at 20 ppm [2]: ≤ 30%
- inhibition at 20 ppm [3]: ≤ 30%
- pest or weed control at 125 ppm (Peronospora parasitica): 80 to 89%
- pest or weed control at 125 ppm (Uromyces appendiculatus; 125 ppm of active ingredient): 90 to 100%

SMILES: Cc1c(C2=NC(C(C)C)C(=O)O2)sc(Br)c1Br (stereo not drawn) [I.10]
- LogP [1, 6]: 5.31^[a]

SMILES: O=C(O)C1(NC(=S)c2sc(Br)c(Br)c2F)CC1 [1-{[(4,5-dibromo-3-fluoro-2-thienyl)carbonothioyl]amino}cyclopropanecarboxylic acid]
- chromatographic logP [1, 7]: 2.95

SMILES: COC(=O)C1(NC(=O)c2sc(C#N)c(Br)c2C)CC1 [methyl 1-{[(4-bromo-5-cyano-3-methyl-2-thienyl)carbonyl]amino}cyclopropanecarboxylate]
- chromatographic logP [1, 7]: 2.31

SMILES: Cc1c(C(=O)O)sc(C#N)c1Br [4-bromo-5-cyano-3-methylthiophene-2-carboxylic acid]
- chromatographic logP [1, 7]: 2.05

Continued, in another order:

- LogP [1, 6]: 3.25^[a]
SMILES: Cc1c(C2=NC3(CC3)C(=O)O2)sc(C#N)c1Cl [I.07]

- LogP [1, 6]: 5.61^[a]
SMILES: O=C1SC(c2sc(Br)c(Br)c2I)=NC12CC2 [I.14]

- chromatographic logP [1, 7]: 5.08
- chromatographic logP [1, 6]: 5.08
SMILES: O=C1SC(c2sc(Br)c(Br)c2F)=NC12CC2 [I.03, 5-(4,5-dibromo-3-fluoro-2-thienyl)-6-thia-4-azaspiro[2.4]hept-4-en-7-one]
- fold induction at 300 ppm [4]: > 2
- inhibition at 20 ppm [2]: ≤ 30%
- inhibition at 20 ppm [3]: ≤ 30%
- pest or weed control at 31 ppm ([5]; 31 ppm of active ingredient): 70 to 79%
- pest or weed control at 125 ppm [5]: 70 to 79%

- chromatographic logP [1, 6]: 5.65
SMILES: Cc1c(C2=NC3(CC3)C(=O)S2)sc(Br)c1Br [I.02]
- fold induction at 75 ppm ([4]; 75 ppm of compound): > 2
- fold induction at 300 ppm [4]: > 2
- inhibition at 20 ppm [2]: ≤ 30%
- inhibition at 20 ppm [3]: ≤ 30%
- pest or weed control at 125 ppm [5]: 80 to 89%
- pest or weed control at 500 ppm (Uromyces appendiculatus; 500 ppm of active ingredient): 70 to 79%

- LogP [1, 6]: 5.61^[a]
SMILES: O=C1SC(c2sc(Br)c(Br)c2Br)=NC12CC2 [I.04]

- LogP [1, 6]: 2.83^[a]
SMILES: N#Cc1sc(C2=NC3(CC3)C(=O)O2)cc1Br [I.05]

Reference: patent publication US12492196B2, “Thienyloxazolones and analogues” (Bayer Aktiengesellschaft, priority 2019, dated 2025)
